The source of these data is patent publication EP2589385A1, “TRIPLE COMBINATION FOR THE TREATMENT OF CANCER” (Fundación Centro Nacional de Investigaciones Oncológicas, priority 2011, dated 2013).

In data set [1] the test system is human primary pancreatic cancer cells (A6L and 185). The data set is described as follows: Viability of adherent cells after inhibitor pretreatment. The class given is cell-based. To be noted: pretreatment with inhibitor.
In the next data set the test system is A6L and 185 cells. The data set is described as follows: Sphere formation assay (CSC self-renewal). It is filed as cell-based, human. The following applies: for sphere formation / sphere forming capacity: 10, 20, and 40µM, 7 days, vs control. As to the method:
(§1) Human pancreatic tumours were obtained with written informed consent from all patients. For in vitro studies, tissue fragments were minced, enzymatically digested with collagenase (Stem Cell Technologies, Vancouver, BC) for 90 min at 37°C (Mueller TM et al. Gastroenterology 2009 137(3):1102-13) and after centrifugation for 5 min at 1200 rpm the pellets were resuspended and cultured in RPMI, 10%FBS and 50units/ml pen/strep. Pancreatic cancer spheres were generated by placing the pancreatic cancer cell in suspension (20,000 cells/ml) in serum-free DMEM/F12 media, supplemented with B27 (1:50, Invitrogen), 20ng/ml bFGF and 50units/ml pen/strep. After 7 days of incubation, spheres were typically >75µm big with ~97% CD133high. For serial passaging, 7-day-old spheres were harvested using 40µm cell strainers, dissociated to single cells with trypsin, and then re-grown for 7 days. Cultures were kept no longer than 4 weeks after recovery from frozen stocks.

Data set [2] relates to pancreatic cancer cells (185 and A6L). In words: Invasion assay, modified Boyden chamber with Matrigel. The class given is cell-based, human. To be noted: for effects of Nodal and Activin on cell invasiveness: cells pretreated with inhibitor at 20µM. The method, then: Invasion assays were performed using modified Boyden chambers filled with Matrigel™ (BioCoat®, BD Biosciences, Heidelberg, Germany). […] 500µl of cell suspensions containing 5x10^4 pre-treated or untreated cells were added to the Matrigel™ coated inserts, and 750µl of serum-free medium with or without 300ng/ml recombinant human Nodal was added to the lower chamber. The assay chambers were incubated for 22h at 37°C. Invaded cells were fixed in 4% PFA and stained with DAPI. The ratios of cells in the lower chamber versus total seeded cells (in per cent) were calculated.

In a further data set the test system is phosphorylation of Smad2. The data set is described as follows: Smad2 phosphorylation assay (western blot). The class given is cell-based, human. To be noted: simultaneous treatment with inhibitor and rNodal or rActivin. An excerpt: PVDF membranes containing electrophoretically separated proteins from human primary pancreatic cancer cells and spheres were probed with mouse antibodies against Nodal (ab556676; Abcam, Inc.), Smad2 (3103; Cell Signalling Technology, Inc.), GAPDH (ab8245-100; Abcam, Inc.), Smad4 (sc-7966; Santa Cruz Biotechnology, Inc.) and rabbit antibody against pSmad2 (3108; Cell Signalling Technology, Inc.), treated with peroxidase-conjugated goat anti-mouse or anti-rabbit Ig secondary antibody (Sigma), and then visualized by enhanced chemoluminescence (Amersham, Inc.). Human primary pancreatic cancer cells were serum-starved for 3h in RPMI (GIBCO). Following starvation, the cells were incubated for 30 min at 37°C with recombinant human Nodal or Activin proteins (300 ng/ml and 100 ng/ml, respectively; R&D) either alone or in the presence of the SB431542 (10 µM, Sigma). Anti-Smad2 and anti-phospho-Smad2 (Ser465/467) Antibodies (Cell Signalling Technology) were used, following the manufacturer's instructions.
(Immunoblotting shows a protein as a band on a membrane.)

Another data set concerns CD133+ population. In words: CD133 content by flow cytometry after in vitro treatment. It is filed as cell-based, human. As to the method:
To identify pancreatic CSC, the following antibodies were used: anti-CD133/1-APC or PE; CD133/2-APC (all Miltenyi, Bergisch-Gladbach, Germany) was used for purity testing after MACSorting; EpCAM-FITC, CD44-PE or appropriate isotype-matched control antibodies (Beckton Dickinson, Heidelberg, Germany). Propidium iodide or 7-AAD was used for exclusion of dead cells (eBiosciences, San Diego, CA). Samples were analysed by flow cytometry using a FACS Canto II (BD) and data were analysed with FlowJo 9.2 software (Ashland, Oregon).
A general note: In flow cytometry, cells or beads pass a laser one at a time.

In the next data set the test system is CD133+ cells. In words: Cell cycle analysis with BrdU flow kit. The class given is cell-based, human.
For the next data set, the system named is L3.6pl cells. In words: In vivo treatment of established orthotopic pancreatic cancer cell line xenografts. Also on record: species or system female NMRI nu/nu mice. The method, then:
(§2) Single-cell suspensions were either orthotopically implanted into the pancreas of female NMRI nu/nu mice (Janvier, Le Genest-Saint-Isle, France) or 2mm3 pieces of primary, in vivo expanded pancreatic cancer tissue were subcutaneously implanted, and mice were randomized to the respective treatment groups. Size and weight of the pancreatic tumours were monitored. Gemcitabine was administered twice a week (125 mg/kg i.p.). SB431542 was used at 25 mg/kg and CUR199691 at 100 mg/kg, both by oral gavages twice daily for three weeks.
Mice were analysed with a 3-Tesla MRI system (Magnetom Tim Trio, Siemens, Erlangen, Germany) using a dedicated small animal coil and T2-weighted scanning.

For data set [3], the system named is primary human pancreatic cancer tissue xenografts. In words: In vivo treatment of primary human pancreatic cancer tissue xenografts. Also on record: species or system female NMRI nu/nu mice. As to the method:
as §2
For orientation: A xenograft is tissue or cells of one species grown in another, often human tumour cells in immunodeficient mice.

Data set [4] has as its system cells isolated from harvested tumours. The data set is described as follows: Sphere formation capacity of cells isolated from treated tumours on day 100. It is filed as cell-based, human. The following applies: cells from tumours harvested on day 100 (Fig. 7G, left panel). The method, then: as §1
Another data set deals with CD133+ CSC. To be noted: treatment with gemcitabine; cited from earlier work.
The test system of data set [5] is xenotransplanted human pancreatic cancer. The following applies: in vivo therapy with gemcitabine; cited from earlier work.

Structures are written as SMILES. Where only a bound is given, the exact number is not on record here.

In the case of `Cc1cccc(-c2nn3c(c2-c2ccnc4ccc(C(N)=O)cc24)CCC3)n1` [LY2157299], the “viability of adherent cells” value in data set [1] is reported as “did not affect the viability of adherent cells”. The “sphere formation / sphere forming capacity” value with A6L and 185 cells is “did not display any effects on sphere forming capacity”. Moreover, in the data set on A6L and 185 cells (summary statement of Example 8 (Fig. 4A)), the sphere forming capacity entry is given as “neither the Alk5 inhibitor LY2157299 nor the TGF-β receptor II neutralizing antibodies resulted in significant changes of sphere forming capacity”. For the same compound, in data set [2] (Alk5 inhibitor with rTGF-β), the “enhanced invasiveness of CSC treated with rTGF-β” value is “abrogated the enhanced invasiveness of CSC treated with rTGF-β”.

As for `NC(=O)c1ccc(-c2nc(-c3ccc4c(c3)OCO4)c(-c3ccccn3)[nH]2)cc1` [SB431542], the “reversal of rNodal/rActivin-enhanced phosphorylation of Smad2” value in the data set with phosphorylation of Smad2 was “almost reversed this enhanced phosphorylation of Smad2”. Besides, the “viability of adherent cells” value in data set [1] is on record as “did not affect the viability of adherent cells”. The “sphere formation / sphere forming capacity” value with A6L and 185 cells is “dose-dependently (10, 20, and 40µM) blocked sphere formation as compared to control”. Also, the “effects of Nodal and Activin on cell invasiveness” value in [2] is “significantly attenuated the effects of Nodal and Activin on cell invasiveness”. Moreover, in data set [2] (conditioned medium from PSC cells in the lower compartment (Fig. 17B)), the “cell invasion of sphere-derived cells” value is on record as “Cell invasion was abrogated”. Further, the “time until the CD133+ population replenished” value with CD133+ population (after four days of treatment with SB431542 alone) is at most 48 h. Also, the “CD133 content / CD133+ population” value in the data set with CD133+ population (four days of treatment) is “marked decrease in CD133 content”. Besides, the “percentage of CD133+ cells in S phase” value with CD133+ cells is “did not affect the percentage of CD133+ cells in S phase”. The “percentage of apoptotic CD133+ cells” value in the data set with CD133+ cells (result in words) is “nor did it increase the percentage of apoptotic CD133+ cells”.

`Cc1cccc(-c2[nH]c(C(C)(C)C)nc2-c2ccc3c(c2)OCO3)n1` [SB505124]: the “effects of Nodal and Activin on cell invasiveness” value in [2] is “significantly attenuated the effects of Nodal and Activin on cell invasiveness”.

Regarding `Nc1ccn([C@@H]2O[C@H](CO)[C@@H](O)C2(F)F)c(=O)n1` [gemcitabine, 4-amino-l-[3,3-difluoro-4-hydroxy-5-(hydroxymethyl)tetrahydrofuran-2-yl]-1 H-pyrimidin-2-one], the “survival / long-term survival” value in the data set with L3.6pl cells (follow-up until day 100 (Fig. 7C)) is “significantly prolonged survival”. In the data set on L3.6pl cells (orthotopic cell line xenografts), this compound showed a tumour take rate of 100%. Further, the median survival in the data set with L3.6pl cells (orthotopic cell line xenografts, treatment started one week after injection, control 32 days) was found to be 54 days. Moreover, the “histological differentiation of remaining tumours” value in data set [3] (day 100) is “poor differentiation”. In addition, the “tumour growth after gemcitabine withdrawal” value in data set [3] (long-term follow-up) was “reaccelerated in growth”. The sphere forming capacity result in [4] is “strong sphere forming capacity”. Besides, the “effect on CD133+ CSC” value in the data set with CD133+ CSC is on record as “no detectable effect”. Moreover, the “CD133+ cells in the residual tumour tissue” value in data set [5] was “significant enrichment of CD133+ cells in the residual tumour tissue”.
